Tests used:
celastrol signature = experiment: Connectivity Map query with the celastrol signature; assay type: cell-based, human; set-up: key to celastrol score (connectivity score): connectivity score, based on Kolmogorov-Smirnov statistic; settings: for celastrol score (connectivity score): enrichment of the celastrol signature (1.25 μM celastrol at 6 h, LNCaP) in the compound's Connectivity Map profiles, 6 hr treatment
Method in brief: (§1)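 LNCaP cells received celastrol 1.25 μM or gedunin 20 μM for 6 h. Each signature was scored by Kolmogorov–Smirnov-based connectivity against 453 build01 profiles, mostly 6 h treatments of MCF7 cells.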

gedunin signature = experiment: Connectivity Map query with the gedunin signature; assay type: cell-based, human; set-up: key to gedunin score (connectivity score): connectivity score, based on Kolmogorov-Smirnov statistic; settings: for gedunin score (connectivity score): enrichment of the gedunin signature (20 μM gedunin at 6 hours, LNCaP) in the compound's Connectivity Map profiles, 6 hr treatment
Method in brief: as §1

[1] = tested on: celastrol and gedunin signatures; experiment: Connectivity Map query with the celastrol and gedunin signatures (joint); assay type: cell-based, human; settings: Connectivity Map profiles, 6 hr
Text: Indeed, a major challenge in cell-based chemical biology and chemical genomics is the identification of compounds' targets (Gardner et al., 2003). We hypothesized that gene expression signatures could be used to identify compound action based on the similarity of such compound-induced signatures to signatures of existing drugs of known mechanism. We therefore employed a collection of gene expression profiles of drug-treated cell lines that was developed in our lab, termed the Connectivity Map (Lamb et al., 2006). This database comprises 453 genome-wide Affymetrix expression profiles derived from the treatment of human cell lines with 164 small molecules, primarily FDA-approved drugs. A 6 hr treatment time was chosen in an attempt to capture the primary, and potentially mechanistic, effects of the compounds rather than the downstream phenotypic consequences.
In order to use the Connectivity Map to gain insight into celastrol and gedunin function, we first defined a gene expression signature of celastrol and gedunin activity. The expression signatures of celastrol and gedunin were derived by expression profiling of RNA from LNCaP cells treated with celastrol (1.25 μM), gedunin (20 μM), and vehicle (DMSO) for 6 hr; signatures were defined using comparative marker selection to identify transcripts that distinguished between the compound- and vehicle-treated profiles by the signal-to-noise (SNR) metric. The enrichment of these signatures in the gene expression profiles of the Connectivity Map database was then assessed using a gene enrichment metric, the connectivity score, based on the Kolmogorov-Smirnov statistic (Lamb et al., 2003).
The celastrol and gedunin signatures were developed from RMA-processed microarray data from LNCaP cells treated with 1.25 μM celastrol or 20 μM gedunin for 6 hours. Comparative marker selection was used to identify markers that distinguished celastrol- and/or gedunin-treated samples from vehicle-treated samples by the median SNR (Golub et al., 1999). […]

[2] = tested on: androgen signaling signature in LNCaP cells; experiment: GE-HTS androgen signaling signature assay / screen; settings: LNCaP, with and without 12 hours androgen pretreatment
[3] = tested on: HSP90 interaction with the cochaperone p23; experiment: HSP90 coimmunoprecipitation, p23; assay type: cell-based; settings: SKBR-3 cells; celastrol 2.5 μM, 12 hr
Procedure: Geldanamycin and other HSP90 inhibitors are known to inhibit p23 association with HSP90 (Felts et al., 2003).
SKBR-3 cells were treated with vehicle, celastrol (2.5 μM, 12 hr), and PU24FCI (20 μM, 24 hr) (Vilenchik et al., 2004). Cells were lysed in 20 mM Tris HCl (pH 7.4), 25 mM NaCl, 2 mM DDT, 20 mM Na2MoO4, 0.1% NP-40, and […]. Lysates were incubated for 2 hr at 4° C., rotating, and then centrifuged at 13,000×g for 10 min. Protein (500 μg) was incubated with H9010 anti-HSP90 antibody for 1 hr at 4° C., rotating. Protein G agarose (30 μl; Upstate) was added to each sample, and samples were then incubated for 1 hr at 4° C., rotating. The beads were washed five times with 1 ml lysis buffer. Bound proteins were isolated by boiling in sample buffer. The levels of HSP90 and coimmunoprecipitating proteins were analyzed by western blot.

HSP90α = HSP90α (Homo sapiens, UniProt P07900); experiment: Geldanamycin competition assay (Cy3B-geldanamycin fluorescence polarization); assay type: binding; set-up: purchased Stressgen SPP776 / SPP-776; settings: celastrol and gedunin at concentrations up to ~100 μM
Procedure: We first tested whether celastrol or gedunin could compete with Cy3B-geldanamycin for binding to the ATP-binding pocket of purified HSP90α by fluorescence polarization assay (Kim et al., 2004, Llauger-Bufi et al., 2003).
The geldanamycin competition assay was performed as described (He et al., 2006, Kim et al., 2004), except that Cy3B-geldanamycin rather than BODIPY-geldanamycin was used as described herein.
Measurements were taken in black 96-well microtiter plates (Coming #3650). The assay buffer (HFB) contained 20 mM HEPES (K) pH 7.3, 50 mM KCl, 5 mM MgCl2, 20 mM Na2MoO4, 0.01% NP40. Before each use, 0.1 mg/mL bovine gamma globulin (BGG) (Panvera Corporation, Madison, Wis.) and 2 mM DTT (Fisher Biotech, Fair Lawn, N.J.) were freshly added. GM-cy3B was synthesized as previously reported and was dissolved in DMSO to form 10 μM solutions. Cell lysates were prepared rupturing cellular membranes by freezing at −70° C. and dissolving the cellular extract in HFB with added protease and phosphotase inhibitors. Saturation curves were recorded in which GM-cy3B (3 nM) was treated with increasing amounts of cellular lysates.

in vitro = settings: human

**Q.** With `C=CCNC1=C2C[C@@H](C)C[C@H](OC)[C@H](O)[C@@H](C)/C=C(\C)[C@H](OC(N)=O)[C@@H](OC)/C=C\C=C(/C)C(=O)NC(=CC1=O)C2=O` [17-AAG, 17-allylamino-geldanamycin, reference compound] as the molecule, how does the “celastrol score (connectivity score)” value (celastrol signature) read?
**A.** 0.736

**Q.** What about the celastrol rank (celastrol signature; rank by celastrol score among 164 Connectivity Map compounds) of the same molecule?
**A.** 8

**Q.** What about the “gedunin score (connectivity score)” value (gedunin signature) of the same molecule?
**A.** 0.702

**Q.** What about the “connectivity scores for the gedunin signature” value (gedunin signature; multiple instances, gedunin signature from LNCaP, 6 hours) of the same molecule?
**A.** High connectivity scores

**Q.** And the gedunin rank (gedunin signature; rank by gedunin score among 164 Connectivity Map compounds)?
**A.** 6

**Q.** What about the “similarity of gene expression profile to the celastrol and gedunin signatures” value [1] of the same molecule?
**A.** very strong similarity

**Q.** And the “effect on the GE-HTS androgen signaling signature outside the screen” value [2]?
**A.** suppressed the androgen signaling signature

**Q.** For `CC(C)NCCCn1c(Sc2cc3c(cc2I)OCO3)nc2c(N)ncnc21` [PU-H71, reference compound], which “HSP90 interaction with cochaperone p23 (coimmunoprecipitation)” value [3] is on record?
**A.** had the same effect

**Q.** What about the “competition with Cy3B-geldanamycin for binding to the ATP-binding pocket of HSP90α” value (HSP90α) of the same molecule?
**A.** competed with geldanamycin binding at low concentrations

**Q.** With `C[C@@H]1C[C@H]2O[C@@H]2/C=C\C=C\C(=O)Cc2c(Cl)c(O)cc(O)c2C(=O)O1` [monorden, reference compound] as the molecule, how does the “celastrol score (connectivity score)” value (celastrol signature) read?
**A.** 0.409

**Q.** And the “gedunin score (connectivity score)” value (gedunin signature)?
**A.** 0.511

**Q.** What about the “similarity of gene expression profile to the celastrol and gedunin signatures” value [1] of the same molecule?
**A.** very strong similarity

**Q.** With `CO[C@H]1C[C@H](O[C@@H]2/C(C)=C/C[C@@H]3C[C@@H](C[C@]4(CC[C@H](C)[C@@H](C5CCCCC5)O4)O3)OC(=O)[C@@H]3C=C(C)/C(=N/O)[C@H]4OC/C(=C\C=C\[C@@H]2C)[C@]43O)O[C@@H](C)[C@@H]1O` [selamectin] as the molecule, how does the viability (in vitro) read?
**A.** 81.1%

Reference: patent US20110263693A1, “CELASTROL, GEDUNIN, AND DERIVATIVES THEREOF AS HSP90 INHIBITORS” (DANA-FARBER CANCER INSTITUTE, INC., priority 2006, published 2011)
